Assay results from patent US11993801B2, “Base-modified nucleotides as substrates for TdT-based enzymatic nucleic acid synthesis” (Illumina Singapore Pte. Ltd., priority 2020, dated 2024).

How the values were obtained:
TdT [1] = target: T1, TdT (Bos taurus, UniProt P06526); experiment: TdT incorporation assay (extension of 21-nt oligonucleotide, denaturing TBE-Urea gel); type: biochemical; conditions: for yield of 22-nt oligo (+1 product) / yield of 23-nt oligo (+2 product) / yield of 24-nt oligo (+3 product): 40 μM nucleotide
T1 construct: purchased New England Biolab (Ipswich, MA)
Description: DNA oligonucleotide sequence used for primer extension assays is: ATTCAGGACGAGCCTCAGACC (SEQ ID NO: 1)
[…] The solution was then heated at 95° C. for 5 minutes to inactivate TdT. UV cleavage of the photolabile group was done using an 8 W UV lamp at 365 nm for 10 minutes.
(§1) Initrogen (Carlsbad, California) Novex™ TBE-Urea gel (15%) was pre-washed with 1×TBE running buffer to remove excess urea. Oligonucleotide samples (5 μL) were mixed with Novex™ TBE-Urea Sample Buffer (2×, 5 μL). The mixture was then heated at 95° C. for 5 minutes and loaded to the gel. Gels were run in a 1×TBE running buffer at up to 240 V until the bromophenol blue reached the bottom of the gel. The gel was then visualized using Gel Doc XR+ and analyzed using the gel analysis tool in the Bio-Rad (Hercules, California) Image Lab software.

TdT [2] = conditions: cited from earlier work
TdT [3] = target: T1, TdT; experiment: 2 cycle incorporation and deprotection; type: biochemical; conditions: nucleotide 20 μM, 7 minutes at 37° C., 8 W UV lamp at 365 nm for 10 minutes per cycle (FIG. 5)
Description: A 6-fluorescein-tagged 21-nt oligonucleotide (200 nM), 1× TdT buffer (NEB), TdT (2 U μL^−1) CoCl2 (NEB, 0.25 mM) and nucleotide (20 μM) in 500 μL solution was incubated at 37° C. for 7 minutes and quenched with EDTA (50 μL, 500 mM). The solution was concentrated using MilliporeSigma (Burlington, Massachusetts) Amicon Ultra-0.5 mL Centrifugal Filters (3 kDa) to a final volume of 30 μL. Sodium Acetate solution (10 μL, 3M, pH 5.0) was added to the concentrated solution and further purified using Zymo (Irvine, California) DNA Clean & Concentrator. UV cleavage of the photolabile group was done using an 8 W UV lamp at 365 nm for 10 minutes. The steps were then repeated to give the second incorporation.
as §1

[4] = 200 nM 21-nt oligonucleotide, 1 U μL^−1 TdT, 15 minutes

T1 sequence (P06526 whole entry): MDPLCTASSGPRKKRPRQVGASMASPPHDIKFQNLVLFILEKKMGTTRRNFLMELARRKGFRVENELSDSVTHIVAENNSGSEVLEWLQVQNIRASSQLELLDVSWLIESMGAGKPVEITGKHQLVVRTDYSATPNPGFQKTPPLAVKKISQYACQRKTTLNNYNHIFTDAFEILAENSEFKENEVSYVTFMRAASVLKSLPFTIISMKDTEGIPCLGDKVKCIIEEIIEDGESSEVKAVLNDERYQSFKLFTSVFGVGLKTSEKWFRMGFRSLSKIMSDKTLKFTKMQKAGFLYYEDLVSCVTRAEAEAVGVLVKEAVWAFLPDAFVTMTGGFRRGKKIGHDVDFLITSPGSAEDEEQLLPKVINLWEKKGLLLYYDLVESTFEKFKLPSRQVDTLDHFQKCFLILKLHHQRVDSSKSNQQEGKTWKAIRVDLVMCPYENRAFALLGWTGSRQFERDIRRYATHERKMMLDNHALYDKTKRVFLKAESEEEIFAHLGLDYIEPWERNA

## Cc1cn([C@H]2C[C@H](OCN=[N+]=[N-])[C@@H](COP(=O)(O)OP(=O)(O)OP(=O)(O)O)O2)c(=O)[nH]c1=O [3′-O-azidomethyl-dTTP, reference compound]
TdT [1]; nucleotide 1 μM to 32 μM, 10 minutes of incubation at 37° C. (FIG. 4)
  incorporation by TdT: unable to incorporate

## CCCCSCCc1cn([C@H]2C[C@H](O)[C@@H](COP(=O)(O)OP(=O)(O)OP(=O)(O)O)O2)c2ncnc(N)c12 [7-[2-(butylsulfanyl)ethyl]-2′-deoxy-7-deazaadenosine 5′-O-triphosphate]
TdT [2]
  number of incorporation events by TdT: only a single incorporation event

## Nc1ncnc2c1c(CCSc1ccccc1)cn2[C@H]1C[C@H](O)[C@@H](COP(=O)(O)OP(=O)(O)OP(=O)(O)O)O1 [7-[2-(phenylsulfanyl)ethyl]-2′-deoxy-7-deazaadenosine 5′-O-triphosphate]
TdT [2]
  number of incorporation events by TdT: only a single incorporation event

## NCC#Cc1cn([C@H]2C[C@H](O)[C@@H](COP(=O)(O)OP(=O)(O)OP(=O)(O)O)O2)c(=O)[nH]c1=O [propargylamino-dUTP, reference compound]
TdT [1]; Lanes 6-7, FIG. 2A
  incorporation by TdT compared to that of dTTP: significantly slower

## N3-PEG4-dUTP [Compound 1]
TdT [1]; [4]
  yield of 22-nt oligo (+1 product): 55%
  yield of 23-nt oligo (+2 product): 41%
  yield of 24-nt oligo (+3 product): 4%
TdT [1]; 30 minutes of incubation
  yield of 22-nt oligo (+1 product): 35%
  yield of 23-nt oligo (+2 product): 56%
  yield of 24-nt oligo (+3 product): 9%

## N3-PEG8-dUTP [Compound 2]
TdT [1]; [4]
  yield of 22-nt oligo (+1 product): 88%
  yield of 23-nt oligo (+2 product): 12%
  yield of 24-nt oligo (+3 product): not observed
TdT [1]; 30 minutes of incubation
  yield of 23-nt oligo (+2 product): 22%
  yield of 24-nt oligo (+3 product): not observed

## N3-PEG12-dUTP [Compound 3]
TdT [1]; [4]
  yield of 22-nt oligo (+1 product): 94%
TdT [1]; 30 minutes of incubation
  yield of 23-nt oligo (+2 product): 13%
  yield of 24-nt oligo (+3 product): not observed

## N3-PEG23-nitrobenzyl-dUTP [Compound 5]
TdT [1]; nucleotide 20 μM (Lane 10, FIG. 4)
  incorporation by TdT: could be incorporated
TdT [1]; optimized conditions, incorporation time varied from 5 to 9 minutes (FIG. 3)
  reaction time in which quantitative incorporation was achieved: ≤ 7 min
TdT [3]
  product after 2 cycles of incorporation and photocleavage of PEG moiety: the desired 23-nt oligo

## N3-PEG24-dUTP [Compound 4]
TdT [1]; [4]
  yield of 22-nt oligo (+1 product): quantitative
TdT [1]; 30 minutes of incubation
  yield of 22-nt oligo (+1 product): 98%
  yield of 23-nt oligo (+2 product): 2%
  yield of 24-nt oligo (+3 product): not observed
